Key:
[1] = molecular target: T1, Oxysterols receptor LXR-alpha (Homo sapiens, UniProt Q13133); type: functional
T1 sequence (Q13133 whole entry): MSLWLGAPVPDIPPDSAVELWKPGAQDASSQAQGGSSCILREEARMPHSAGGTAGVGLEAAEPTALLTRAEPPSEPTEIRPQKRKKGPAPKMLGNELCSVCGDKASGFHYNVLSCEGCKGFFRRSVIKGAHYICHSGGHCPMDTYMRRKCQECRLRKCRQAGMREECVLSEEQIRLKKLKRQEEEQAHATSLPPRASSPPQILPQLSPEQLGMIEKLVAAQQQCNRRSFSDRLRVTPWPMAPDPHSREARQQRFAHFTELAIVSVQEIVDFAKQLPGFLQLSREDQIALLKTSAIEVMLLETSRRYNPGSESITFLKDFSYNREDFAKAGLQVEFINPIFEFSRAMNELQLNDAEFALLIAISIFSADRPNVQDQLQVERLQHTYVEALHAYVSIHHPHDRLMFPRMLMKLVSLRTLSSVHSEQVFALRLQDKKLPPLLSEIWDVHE

Bile acid receptor [2] = molecular target: T2, Bile acid receptor (Homo sapiens, UniProt Q96RI1); type: functional
T2 sequence (Q96RI1 whole entry): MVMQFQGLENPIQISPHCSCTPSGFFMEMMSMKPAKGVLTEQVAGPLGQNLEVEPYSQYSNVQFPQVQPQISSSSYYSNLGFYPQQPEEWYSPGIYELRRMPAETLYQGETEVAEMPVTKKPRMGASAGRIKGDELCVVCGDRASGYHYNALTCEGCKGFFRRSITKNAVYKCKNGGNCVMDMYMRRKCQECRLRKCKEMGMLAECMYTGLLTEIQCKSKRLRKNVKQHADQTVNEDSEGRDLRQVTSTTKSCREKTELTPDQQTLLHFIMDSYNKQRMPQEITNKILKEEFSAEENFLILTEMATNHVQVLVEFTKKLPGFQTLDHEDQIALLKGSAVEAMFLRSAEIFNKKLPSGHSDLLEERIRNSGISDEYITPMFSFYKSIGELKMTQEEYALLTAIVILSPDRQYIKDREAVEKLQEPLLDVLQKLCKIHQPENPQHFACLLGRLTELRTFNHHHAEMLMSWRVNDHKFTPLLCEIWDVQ

Bile acid receptor [3] = molecular target: T2, Bile acid receptor; type: functional; remark: listed apart in the source
[4] = molecular target: T1, Oxysterols receptor LXR-alpha; type: functional; remark: listed apart in the source
Substance-K receptor = molecular target: T3, Substance-K receptor (Homo sapiens, UniProt P21452)
T3 sequence (P21452 whole entry): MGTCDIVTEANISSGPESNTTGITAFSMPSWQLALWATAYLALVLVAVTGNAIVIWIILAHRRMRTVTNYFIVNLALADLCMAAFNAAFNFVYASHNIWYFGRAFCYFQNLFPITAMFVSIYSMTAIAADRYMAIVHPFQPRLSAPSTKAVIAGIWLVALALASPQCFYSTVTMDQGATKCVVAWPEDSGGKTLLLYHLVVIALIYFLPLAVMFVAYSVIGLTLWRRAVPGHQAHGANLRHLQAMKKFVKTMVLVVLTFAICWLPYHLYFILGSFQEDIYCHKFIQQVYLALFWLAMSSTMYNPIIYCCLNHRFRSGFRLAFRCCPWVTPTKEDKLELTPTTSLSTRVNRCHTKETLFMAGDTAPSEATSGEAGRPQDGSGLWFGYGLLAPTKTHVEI

[5] = molecular target: Rod cGMP-specific 3',5'-cyclic phosphodiesterase subunit alpha (Homo sapiens, UniProt P16499); type: functional
Rod cGMP-specific 3',5'-cyclic phosphodiesterase subunit alpha, sequence (P16499 whole entry): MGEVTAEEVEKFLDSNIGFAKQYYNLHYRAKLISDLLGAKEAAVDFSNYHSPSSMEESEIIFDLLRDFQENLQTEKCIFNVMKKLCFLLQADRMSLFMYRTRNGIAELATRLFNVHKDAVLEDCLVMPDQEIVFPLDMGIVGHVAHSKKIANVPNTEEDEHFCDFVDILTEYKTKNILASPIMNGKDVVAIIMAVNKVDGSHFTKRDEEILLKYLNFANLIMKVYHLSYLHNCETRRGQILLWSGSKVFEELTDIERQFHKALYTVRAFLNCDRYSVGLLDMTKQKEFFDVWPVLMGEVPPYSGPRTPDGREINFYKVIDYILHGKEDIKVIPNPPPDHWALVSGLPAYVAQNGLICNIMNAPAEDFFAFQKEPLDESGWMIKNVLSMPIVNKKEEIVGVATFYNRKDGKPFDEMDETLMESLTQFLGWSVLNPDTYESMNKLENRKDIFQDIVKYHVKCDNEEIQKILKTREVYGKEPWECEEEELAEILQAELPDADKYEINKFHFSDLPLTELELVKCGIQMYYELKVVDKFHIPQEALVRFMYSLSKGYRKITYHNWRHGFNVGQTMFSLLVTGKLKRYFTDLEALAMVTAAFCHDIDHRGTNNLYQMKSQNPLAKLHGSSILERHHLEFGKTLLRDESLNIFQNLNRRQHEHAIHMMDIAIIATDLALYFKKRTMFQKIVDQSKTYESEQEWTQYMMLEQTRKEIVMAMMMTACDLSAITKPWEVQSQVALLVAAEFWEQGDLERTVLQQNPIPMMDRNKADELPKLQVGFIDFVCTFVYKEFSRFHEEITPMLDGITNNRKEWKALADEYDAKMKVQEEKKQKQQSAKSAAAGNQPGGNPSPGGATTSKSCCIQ

Androgen receptor = molecular target: T4, Androgen receptor (Rattus norvegicus, UniProt P15207); type: functional
T4 sequence (P15207 whole entry): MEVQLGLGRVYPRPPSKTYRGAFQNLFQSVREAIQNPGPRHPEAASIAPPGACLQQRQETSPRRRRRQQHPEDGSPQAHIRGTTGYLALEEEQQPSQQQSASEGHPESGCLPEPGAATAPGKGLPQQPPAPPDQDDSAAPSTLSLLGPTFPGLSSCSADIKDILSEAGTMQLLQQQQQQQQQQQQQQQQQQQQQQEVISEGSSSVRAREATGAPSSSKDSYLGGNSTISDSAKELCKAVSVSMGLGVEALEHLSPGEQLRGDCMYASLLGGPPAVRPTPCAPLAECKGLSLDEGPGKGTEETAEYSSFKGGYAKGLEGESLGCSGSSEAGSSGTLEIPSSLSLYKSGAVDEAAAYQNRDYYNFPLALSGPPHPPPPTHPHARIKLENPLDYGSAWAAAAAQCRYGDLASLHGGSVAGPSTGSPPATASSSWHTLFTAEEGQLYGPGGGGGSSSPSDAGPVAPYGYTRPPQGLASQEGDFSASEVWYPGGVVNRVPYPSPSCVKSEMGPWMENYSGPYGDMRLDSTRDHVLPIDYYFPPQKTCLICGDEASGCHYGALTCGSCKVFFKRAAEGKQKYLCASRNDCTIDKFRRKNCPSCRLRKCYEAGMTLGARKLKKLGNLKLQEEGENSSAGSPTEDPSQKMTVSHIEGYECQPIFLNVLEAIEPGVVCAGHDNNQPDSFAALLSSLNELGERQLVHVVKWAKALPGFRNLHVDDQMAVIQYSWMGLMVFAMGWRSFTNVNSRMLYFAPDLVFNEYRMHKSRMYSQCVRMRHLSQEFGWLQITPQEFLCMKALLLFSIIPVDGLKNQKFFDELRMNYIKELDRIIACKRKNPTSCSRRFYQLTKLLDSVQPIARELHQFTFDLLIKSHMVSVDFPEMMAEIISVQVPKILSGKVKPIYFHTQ

[6] = molecular target: T5, Type-2 angiotensin II receptor (Homo sapiens, UniProt P50052); type: functional
T5 sequence (P50052 whole entry): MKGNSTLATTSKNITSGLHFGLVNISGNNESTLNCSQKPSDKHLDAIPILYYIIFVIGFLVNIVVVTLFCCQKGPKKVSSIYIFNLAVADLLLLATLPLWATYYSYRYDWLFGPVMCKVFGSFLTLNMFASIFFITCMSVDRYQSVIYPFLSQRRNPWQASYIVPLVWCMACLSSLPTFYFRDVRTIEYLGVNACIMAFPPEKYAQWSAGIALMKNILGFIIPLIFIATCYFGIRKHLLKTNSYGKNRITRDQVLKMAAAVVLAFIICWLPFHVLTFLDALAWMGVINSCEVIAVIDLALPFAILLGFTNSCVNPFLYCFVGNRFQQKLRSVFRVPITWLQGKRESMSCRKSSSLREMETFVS
Note: assay procedure not described here.

CC(C)/N=c1\cc2n(-c3ccc(Cl)cc3)c3ccccc3nc-2cc1Nc1ccc(Cl)cc1 [CLOFAZIMINE]
AC50 [1]: > 30 µM
AC50 (Bile acid receptor [2]): > 30 µM
AC50 (Bile acid receptor [3]): 16 µM
AC50 [4]: > 30 µM

CCOC(=O)[C@H](CCc1ccccc1)N[C@@H](C)C(=O)N1Cc2ccccc2C[C@H]1C(=O)O
AC50 (Substance-K receptor): > 10 µM
AC50 [5]: > 10 µM

CCN(CC)CCn1c(=O)c(Cc2ccc(OC)cc2)nc2ccccc21 [CAROVERINE]
AC50 (Androgen receptor): > 30 µM

C[C@H](CS)C(=O)N1CCC[C@H]1C(=O)O [CAPTOPRIL]
AC50 [6]: > 100 µM

Source: ChEMBL document CHEMBL5291721, “A preclinical secondary pharmacology resource illuminates target-adverse drug reaction associations of marketed drugs” (Nat Commun, 2023)
